From patent US10317393B2, “Alkynyl sugar analogs for labeling and visualization of glycoconjugates in cells” (Academia Sinica, priority 2007, dated 2019)

Assays:
PC-3 cells = assay: Lectin staining of tagged cells, flow cytometry; assay type: cell-based; conditions: 200 micromolar, three days
Procedure: FIGS. 9A and 9B show lectin staining of alkynyl-derivatized Fuc 1-tagged PC-3 prostate cancer cells. Cells were treated with 200 micromolar derivatized alkynyl-derivatized Fuc 1, or Fuc 3, or left untreated. After three days, cells were labeled with biotin-conjugated AAL/fluorescein-conjugated streptavidin shown in FIG. 9A or fluorescein-conjugated UEA-I shown in FIG. 9B. Fluorescent signal was detected by flow cytometry. AAL was used to detect α-1,6- or α-1,3-linked Fuc; UEA-I was used to detect α-1,2-linked Fuc. Filled histogram: untreated cells without lectin stain; open histogram c: untreated cells stained with lectin; open histogram b: control Fuc 3-treated cells stained with lectin; open histogram a: alkynyl-derivatized Fuc 1-treated cells stained with lectin. AAL, Aleuria Aurantia Lectin; UEA-1, Ulex Europaeus Agglutinin I.
PC-3 cells were grown in RPMI 1640 (Invitrogen) supplemented with 10% FCS and peracetylated alkynyl Fuc 1 or control Fuc 3 for 3 days at 37° C. Cells were then harvested, washed with 1% FCS/PBS, resuspended (5×10^5 cells) in 100 μl of staining solution (1 μg/ml lectin conjugates in 1% FCS/PBS). Cells were then incubated on ice for 30 min and washed twice with 1% FCS/PBS. […] Data were acquired by FACSCalibur, and were analyzed by CellQuestPro software (BD Biosciences).

H. pylori = assay: Labeling and detection of fucosylated glycoconjugates in H. pylori (immunoprecipitation, SDS-PAGE, protein blot); assay type: cell-based, Helicobacter pylori
Procedure: Representative H. pylori strains isolated from human gastric biopsy specimens, including gastritis (HS), duodenal ulcer (HD), gastric ulcer (HU) and gastric cancer (HC), were subjected to MOE: all the strains were grown on CDC agar plate supplemented with 200 micromolar derivatized alkynyl Fuc 1 for two days under micro-aerobic atmosphere (5% O2, 15% CO2, 80% N2). […] Immunoprecipitates were then analyzed by SDS-PAGE and stained for visualization. […]
Protein extracts were prepared in lysis buffer (1% NP-40, 150 mM NaCl, 100 mM sodium phosphate pH 7.5, 1×EDTA-free protease inhibitor cocktail) and labeled with biotin probe 6 (protein 1 mg/ml with 0.1 mM azido biotin 6/0.1 mM Tris-thiazoleamine catalyst/1 mM CuSO4/2 mM sodium ascorbate in lysis buffer) via cycloaddition at room temperature for 1 h. […] Immunoprecipitates were then analyzed by SDS-PAGE and stained for visualization. […]
Detection of CagA on protein blots: Protein extracted from control or alkynyl Fuc 1 analog-treated HC samples were subjected to cycloaddition labeling to label with biotin probe (protein 1 mg/ml with 0.1 mM azido biotin 6/0.1 mM Tris-thiazoleamine catalyst/1 mM CuSO4/2 mM sodium ascorbate in lysis buffer), followed by immunoprecipitation with anti-CagA antibody (Santa Cruz). The derivatized alkynyl Fuc tags/biotin labeling on CagA protein were detected by peroxidase-conjugated streptavidin on protein blot.

cell extracts = assay: Labeling and detection of glycoconjugates in cell extracts (SDS/PAGE, Western blot); assay type: cell-based; conditions: 200 micromolar Fuc or 25 micromolar ManNAc analogs, 3 days
From the text: Because the herein disclosed labeling system enables the identification of cellular glycoconjugates, it can also serve well in glyco-proteomic applications aimed at discovering unknown glycosylated targets for diagnostic and therapeutic purposes. […] Soluble lysate fractions are labeled with biotin probe 6, fluorogenic probe 7, or a standard azido-derivatized rhodamine probe used in proteomics before separating proteins by SDS/PAGE. […] Positive fluorescent signal was also detected in alkynyl positive protein lysate when labeled with fluorogenic 3-azido-7-hydroxycoumarin 7 and rhodamine probes (FIG. 6B and FIG. 11). […] Moreover, further processing, including a streptavidin/avidin enrichment or gel slice purification, will allow for comparative identification by proteomic mass spectrometry techniques of unknown glycoconjugates expressed at different cell status, for instance, un-differentiated verses differentiated cells, or normal verses cancer cells.
Cells were seeded at 3×10^6/8 ml per 10-cm dish and treated with control and test sugars (200 micromolar Fuc 3 vs. alkynyl derivatized Fuc 1, or 25 micromolar ManNAc 5 vs. alkynyl derivatized ManNAc 2) in growth medium at 37° C. […] Signal was developed with SuperSignal Chemiluminescent Substrate and detected by exposure to x-ray film. […] Rhodamine gels were analyzed.

For “1,2,3,4-tetraacetyl alkynyl fucose [alkynyl Fuc 1]”, the “binding of Ulex Europaeus Agglutinin I (UEA-1) to treated cells versus control” value (PC-3 cells) was “significantly lower avidity”, the “binding of aleuria aurantia lectin to treated cells versus control” value (PC-3 cells) was “significantly lower avidity” and the “tagged fucosyl proteins isolated by anti-biotin immunoprecipitation” value (H. pylori; 200 micromolar, two days, strains HS, HD, HU, HC) was “several proteins were detected”. For the same substance, the “biotinylated Fuc tags on CagA protein (protein blot)” value (H. pylori; HC strain, anti-CagA immunoprecipitation) was “specific signal is only detected in MOE-tagged HC strain” and the “labeling signal in proteins by Western blot or fluorescence” value (cell extracts) was “specific biotin-labeling signals”.
